Data reported in ChEMBL document CHEMBL1149997, “Anti-HIV activity of quassinoids” (Bioorg Med Chem Lett, 1996).

Key:
[1] = Therapeutic index expressed as the ratio of IC50 to EC50.; conditions: read-out: Therapeutic index
H9 [2] = assay: Cytotoxicity against H9 lymphocytic cells.; assay type: functional, cell-based; conditions: Homo sapiens
[3] = system: Human immunodeficiency virus 1; assay: Inhibition of HIV-1 replication in H9 lymphocytic cells.; assay type: functional, organism-based; conditions: Human immunodeficiency virus 1, H9
H9 [4] = assay: Compound was tested for inhibitory activity against HIV replication in H9 lymphocytic cells; Toxic at all concentrations; assay type: functional, cell-based, Homo sapiens
H9 [5] = assay: Compound was tested for cytotoxicity against H9 lymphocytic cells; Toxic at all concentrations; assay type: functional, cell-based, Homo sapiens
[6] = Therapeutic index expressed as the ratio of IC50 to EC50; No effect
H9 [7] = assay: Compound was tested for inhibitory activity against HIV replication in H9 lymphocytic cells; No effect; assay type: functional, cell-based, Homo sapiens

Row | SMILES | selectivity ratio [1] | IC50 (H9 [2]) [µM] | EC50 [3] [µM] | EC50 (H9 [4]) | IC50 (H9 [5]) | Therapeutic index [6] | EC50 (H9 [7])
1 | CC(=O)O[C@@H]1C(=O)[C@H](C)[C@@H]2CC(=O)O[C@@H]3C[C@H]4[C@H](C)CC(O)C(=O)[C@]4(C)[C@@H]1[C@@]32C (some centres not stated) | > 1 | > 246 | 246 | – | – | – | –
2 | CC1=CC(=O)[C@@H](O)[C@@]2(C)C1C[C@H]1OC(=O)C[C@H]3[C@H](C)[C@H](O)C(=O)[C@@H]2[C@@]13CO (some centres not stated) | > 25 | > 264 | 10.6 | – | – | – | –
3 | C=C1[C@@H](O)[C@]2(O)OC[C@@]34[C@H]1[C@@H](OC(=O)C(C)(O)CC)C(=O)O[C@@H]3C[C@H]1C(C)=CC(=O)[C@@H](O)[C@]1(C)[C@@H]24 (some centres not stated) | – | – | – | Toxic at all concentrations | Toxic at all concentrations | – | –
4 | COC(=O)C(C)[C@@H]1CC(=O)O[C@@H]2C[C@H]3C(C)=CC(=O)[C@@H](O)[C@]3(C)[C@H]3C(=O)OC[C@]321 (some centres not stated) [AILANTINOL A] | > 8.2 | > 246 | 30 | – | – | – | –
5 | C[C@@H]1C[C@H](O)C(=O)[C@]2(C)[C@H]3[C@H](O)C(=O)[C@H](C)[C@@H]4CC(=O)O[C@H](C[C@@H]12)[C@]34C [AMAROLIDE] | > 1.5 | > 275 | 179 | – | – | – | –
6 | COC(=O)[C@@]12OC[C@]34[C@H]([C@@H](O)[C@@H]1O)[C@@]1(C)C=C(O[C@@H]5O[C@H](CO)[C@@H](O)[C@H](O)[C@H]5O)C(=O)[C@@H](C)[C@@H]1C[C@H]3OC(=O)[C@H](OC(=O)C=C(C)C)[C@@H]24 [BRUCEOSIDE A] | 1 | 29 | 29 | – | – | – | –
7 | COC(=O)[C@@]12OC[C@]34[C@H](OC(=O)C[C@@H]13)[C@H](OC(=O)C=C(C)C)[C@H]1C(C)=C(O[C@@H]3O[C@H](CO)[C@@H](O)[C@H](O)[C@H]3O)C(=O)C[C@]1(C)[C@H]4[C@@H](O)[C@@H]2O [BRUCEOSIDE C] | – | 44 | – | – | – | Not Active | Not Active
8 | CC(C)=CC(=O)O[C@H]1C(=O)O[C@@H]2C[C@H]3[C@H](C)C(=O)C(O[C@@H]4O[C@H](CO)[C@@H](O)[C@H](O)[C@H]4O)=C[C@]3(C)[C@H]3[C@@H](O)[C@H](O)[C@]4(C(=O)O)OC[C@]32[C@@H]14 [BRUCEOSIDE D] | – | 52 | – | – | – | Not Active | Not Active
9 | CC(C)CC(=O)O[C@H]1C(=O)O[C@@H]2C[C@H]3[C@H](C)C(=O)C(O[C@@H]4O[C@H](CO)[C@@H](O)[C@H](O)[C@H]4O)=C[C@]3(C)[C@H]3[C@@H](O)[C@H](O)[C@]4(C(=O)O)OC[C@]32[C@@H]14 [BRUCEOSIDE E] | 0.8 | 59 | 74 | – | – | – | –
10 | COC(=O)[C@]12OC[C@]34[C@H]([C@@H](O)[C@@H]1O)[C@@]1(C)C(=O)C(O[C@@H]5O[C@H](CO)[C@@H](O)[C@H](O)[C@H]5O)=C[C@@H](C)[C@@H]1C[C@H]3OC(=O)[C@H](OC(=O)/C=C(\C)C(C)(C)OC(C)=O)[C@@H]24 [Bruceantinoside C] | 0.6 | 26 | 46 | – | – | – | –
11 | COC(=O)[C@]12OC[C@]34[C@H]([C@@H](O)[C@@H]1O)[C@@]1(C)C=C(O[C@@H]5O[C@H](CO)[C@@H](O)[C@H](O)[C@H]5O)C(=O)[C@@H](C)[C@@H]1C[C@H]3OC(=O)[C@H](OC(=O)/C=C(\C)C(C)C)[C@@H]24 [Bruceantinoside-A] | – | 4 | – | – | – | Not Active | Not Active
12 | COC(=O)[C@]12OC[C@]34[C@H]([C@@H](O)[C@@H]1O)[C@@]1(C)CC(=O)C(O[C@@H]5O[C@H](CO)[C@@H](O)[C@H](O)[C@H]5O)=C(C)[C@@H]1C[C@H]3OC(=O)[C@H](OC(=O)C=C(C)C)[C@@H]24 [Bruceoside-B] | 1 | 3 | 3 | – | – | – | –
13 | CC(=O)OC(C)(C)/C(C)=C/C(=O)O[C@H]1C(=O)O[C@@H]2C[C@H]3[C@H](C)C(=O)C(O[C@@H]4O[C@H](CO)[C@@H](O)[C@H](O)[C@H]4O)=C[C@]3(C)[C@H]3[C@@H](O)[C@H](O)[C@@]4(C(=O)O)OC[C@]32[C@@H]14 [Bruceoside-F] | > 1.2 | > 132 | 112 | – | – | – | –
14 | CC1=CC(=O)[C@@H](O)[C@]2(C)[C@H]3[C@@]4(O)C(=O)OC[C@@]35[C@@H](C[C@@H]12)OC(=O)C[C@H]5[C@H]4C [SHINJUDILACTONE] | > 6.2 | > 266 | 43 | – | – | – | –
15 | C=C1[C@H](O)[C@]2(O)OC[C@]34[C@H]2[C@@]2(C)[C@H](O)[C@@H](O)C=C(C)[C@@H]2C[C@H]3OC(=O)C[C@@H]14 [SHINJULACTONE A] | 1 | 5 | 5 | – | – | – | –
16 | COC(=O)[C@]12OC[C@]34[C@H]([C@@H](O)[C@@H]1O)[C@@]1(C)C=C(O[C@@H]5O[C@H](CO)[C@@H](O)[C@H](O)[C@H]5O)C(=O)[C@@H](C)[C@@H]1C[C@H]3OC(=O)[C@H](OC(=O)/C=C(\C)C(C)(C)O)[C@@H]24 [YADANZIOSIDE C] | – | 55 | – | – | – | Not Active | Not Active
17 | COC(=O)[C@]12OC[C@]34[C@H]([C@@H](O)[C@@H]1O)[C@@]1(C)C=C(O[C@@H]5O[C@H](CO)[C@@H](O)[C@H](O)[C@H]5O)C(=O)[C@@H](C)[C@@H]1C[C@H]3OC(=O)[C@H](OC(C)=O)[C@@H]24 [YADANZIOSIDE F] | 1.4 | 156 | 109 | – | – | – | –
18 | COC(=O)[C@@]12OC[C@]34[C@H]([C@@H](O)[C@@H]1O)[C@@]1(C)C=C(O[C@@H]5O[C@H](CO)[C@@H](O)[C@H](O)[C@H]5O)C(=O)[C@@H](C)[C@@H]1C[C@H]3OC(=O)[C@H](OC(=O)c1ccccc1)[C@@H]24 [YADANZIOSIDE-M] | – | 7 | – | – | – | Not Active | Not Active
19 | COC(=O)[C@]12OC[C@]34[C@H]([C@@H](O)[C@@H]1O)[C@@]1(C)C=C(O[C@@H]5O[C@H](CO)[C@@H](O)[C@H](O)[C@H]5O)C(=O)[C@@H](C)[C@@H]1C[C@H]3OC(=O)[C@H](OC(=O)CC(C)C)[C@@H]24 [Yadanzioside A] | 1.3 | 146 | 110 | – | – | – | –
20 | COC(=O)[C@]12OC[C@]34[C@H]([C@@H](O)[C@@H]1O)[C@@]1(C)CC(=O)C(O[C@@H]5O[C@H](CO)[C@@H](O)[C@H](O)[C@H]5O)=C(C)[C@@H]1C[C@H]3OC(=O)[C@H](OC(=O)CC(C)C)[C@@H]24 [Yadanzioside B] | 0.8 | 4 | 5 | – | – | – | –
21 | COC(=O)[C@]12OC[C@]34[C@H]([C@@H](O)[C@@H]1O)[C@@]1(C)[C@H](O)[C@H](O[C@@H]5O[C@H](CO)[C@@H](O)[C@H](O)[C@H]5O)C=C(C)[C@@H]1C[C@H]3OC(=O)[C@H](OC(=O)C=C(C)C)[C@@H]24 [Yadanzioside E] | – | 29 | – | – | – | Not Active | Not Active
22 | COC(=O)[C@]12OC[C@]34[C@H]([C@@H](O)[C@@H]1O)[C@@]1(C)C=C(O[C@@H]5O[C@H](CO)[C@@H](O)[C@H](O)[C@H]5O)C(=O)[C@@H](C)[C@@H]1C[C@H]3OC(=O)[C@H](OC(=O)/C=C(\C)C(C)(C)OC(C)=O)[C@@H]24 [Yadanzioside G] | 1.6 | 37 | 23 | – | – | – | –
23 | COC(=O)[C@]12OC[C@]34[C@H]([C@@H](O)[C@@H]1O)[C@@]1(C)CC(=O)C(O[C@@H]5O[C@H](CO)[C@@H](O)[C@H](O)[C@H]5O)=C(C)[C@@H]1C[C@H]3OC(=O)[C@H](OC(=O)/C=C(\C)C(C)(C)O)[C@@H]24 [Yadanzioside L] | 2 | 10 | 5 | – | – | – | –
24 | COC(=O)[C@]12OC[C@]34[C@H]([C@@H](O)[C@@H]1O)[C@@]1(C)C(=O)C(O[C@@H]5O[C@H](CO)[C@@H](O)[C@H](O)[C@H]5O)=C[C@@H](C)[C@@H]1C[C@H]3OC(=O)[C@H](OC(=O)/C=C(\C)C(C)C)[C@@H]24 [Yadanzioside N] | – | 49 | – | – | – | Not Active | Not Active
25 | COC(=O)[C@]12OC[C@]34[C@H]([C@@H](O)[C@@H]1O)[C@@]1(C)CC(=O)C(O[C@@H]5O[C@H](CO)[C@@H](O)[C@H](O)[C@H]5O)=C(C)[C@@H]1C[C@H]3OC(=O)[C@H](OC(=O)/C=C(\C)C(C)C)[C@@H]24 [Yadanzioside P] | 1 | 18 | 18 | – | – | – | –
26 | Nc1ccn([C@H]2CC[C@@H](CO)O2)c(=O)n1 [ZALCITABINE] | 16700 | 500 | 0.03 | – | – | – | –
